How the values were obtained:
recombinant human PAI-1 [1] = biological target: T1, recombinant human PAI-1 (Homo sapiens, UniProt P05121); experiment: biochemical
Method: <Compotion of pH7.4 HEPES Buffer>
(§1) • 0.1 M HEPES • 0.1 M NaCl • […] • 0.1% Polyethylene glycol 8,000 (Hampton Research Corporation) • 2 mM Dimethyldecylphoshine oxide [Apo-10] (Fluka Corporation) [Results]

recombinant rat PAI-1 = biological target: T2, recombinant rat PAI-1 (Rattus norvegicus, UniProt P20961); experiment: biochemical
T2 sequence (P20961 24-402): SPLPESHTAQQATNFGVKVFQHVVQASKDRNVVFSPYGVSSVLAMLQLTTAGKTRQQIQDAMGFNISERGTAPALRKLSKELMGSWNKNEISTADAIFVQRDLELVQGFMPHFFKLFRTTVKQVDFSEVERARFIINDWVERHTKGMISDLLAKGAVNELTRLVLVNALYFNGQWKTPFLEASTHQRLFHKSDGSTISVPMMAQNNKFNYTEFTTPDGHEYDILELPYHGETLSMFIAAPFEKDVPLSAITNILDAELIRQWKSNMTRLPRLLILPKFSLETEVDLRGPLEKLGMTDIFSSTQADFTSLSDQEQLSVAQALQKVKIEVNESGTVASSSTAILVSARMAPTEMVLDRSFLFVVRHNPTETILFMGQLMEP
Method: as §1

[2] = test system: Crlj:CD(SD) rat AV shunt model; experiment: Test Example 5: anti-thrombotic activity (rat AV shunt model); type: in vivo; conditions: oral, 10 mg/kg/day for 4 days, mean ± S.E., vehicle 72.7 ± 2.7, *p < 0.05
Method: The administration on the 4th day was carried out about 1 hour before the following perfusion start. Put a 6.5 cm silk thread (Matsuda Ika Kogyou; […] On the connected part where the silk thread is through, parafilm was wrapped around to avoid blood leakage. […] Saline was filled in the above catheter, and both ends of the catheter were inserted in right carotid artery and […], respectively, and blood was circulated. 30 minutes later, the catheter was pinched with forceps to stop blood flow, and tube parts where the silk thread is through were cut and removed. The silk thread was carefully removed from the tubes, remaining wet weight was weighed after removing the liquid phase by filter paper, and further subtraction of the weight of the silk thread, gives the thrombus weight. For the thrombus weight in each group, an average value±standard error (S.E.) was calculated. […] For the test, the SAS System Release 8.2 (TS2M0) for Windows (Registered Trademark) (SAS Institute Inc.) and its coorperative system […] Ver. 7.10 (Arm Systex Co. Ltd.) were employed.

recombinant human PAI-1 [3] = biological target: T1, recombinant human PAI-1; experiment: Test Example 1: human PAI-1 inhibitory activity (tPA fluorogenic substrate, pH7.5 Tris buffer); type: biochemical; set-up: purchased Molecular Innovations, Inc; conditions: for Inhibition Rate of Human PAI-1 Activity (%): Tris buffer pH7.5
Method: In a 96-well multiplate (black), 1.5 μl of DMSO solution of the present application compound prepared to achieve 80-fold the test concentration (=the final concentration when fluorogenic substrate is added) was diluted with 52.5 μl of pH7.5 Tris buffer. […] Furthermore, 30 μl of 800 IU/ml two-chain tPA (Activity Standard; American diagnostics, inc.) prepared by Tris buffer was added, and the mixed solution was incubated for 15 minutes at room temperature. To this, 30 μl of 400 μM fluorogenic substrate (Pyr-Gly-Arg-MCA; Peptide Institute, Inc.) for tPA prepared by Tris buffer was added and reacted for 30 minutes at room temperature.
<Composition of pH7.5 Tris Buffer)

[4] = read-out: Inhibition Rate of Rat PAI-1 Activity (%)
[5] = pH 7.5, read-out: Inhibition Rate of Human PAI-1 Activity (%)

T1 sequence (P05121 24-402): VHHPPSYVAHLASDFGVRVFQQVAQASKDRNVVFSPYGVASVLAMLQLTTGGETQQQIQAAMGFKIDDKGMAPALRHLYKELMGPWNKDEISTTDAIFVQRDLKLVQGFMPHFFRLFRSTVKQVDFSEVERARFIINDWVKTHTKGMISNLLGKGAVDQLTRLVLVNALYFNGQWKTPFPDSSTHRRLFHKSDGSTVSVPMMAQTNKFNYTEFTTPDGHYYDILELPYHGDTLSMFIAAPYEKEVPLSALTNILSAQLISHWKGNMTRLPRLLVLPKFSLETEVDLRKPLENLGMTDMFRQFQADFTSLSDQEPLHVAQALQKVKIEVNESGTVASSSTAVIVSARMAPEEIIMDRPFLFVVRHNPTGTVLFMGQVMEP

Structure (SMILES)	Inhibition Rate of Human PAI-1 Activity (%) (recombinant human PAI-1 [3]; compound 5 μM)	Inhibition Rate of Human PAI-1 Activity (%) (recombinant human PAI-1 [3]; compound 10 μM)	Inhibition Rate of Human PAI-1 Activity (%) (recombinant human PAI-1 [3]; compound 25 μM)	other results
CC(C)(C)c1ccc(COc2ccc(-c3ccc(OC(F)(F)F)cc3)cc2CCC(=O)O)cc1 [Compound 5, 3-{4-[4-(tert-butyl)benzyloxy]-4′-(trifluoromethoxy)biphenyl-3-yl}propanoic acid]	–	–	–	IC50 (recombinant human PAI-1 [1]): 1270 nM; IC50 (recombinant rat PAI-1): 2800 nM; Thrombus Weight (mg) [2]: 57.5 ± 5.0* mg
CC(C)(C)c1ccc(COc2ccc(-c3ccc(OC(F)(F)F)cc3)cc2CC(=O)O)cc1 [Compound 9, {4-[4-(tert-butyl)benzyloxy]-4′-(trifluoromethoxy)biphenyl-3-yl}acetic acid]	–	–	–	IC50 (recombinant human PAI-1 [1]): 1300 nM; IC50 (recombinant rat PAI-1): 2070 nM
CC(C)(C)c1ccc(Oc2ccc(-c3ccc(OC(F)(F)F)cc3)cc2CCC(=O)O)cc1 [Compound 13, 3-{4-[4-(tert-butyl)phenoxy]-4′-(trifluoromethoxy)biphenyl-3-yl}propanoic acid]	–	–	–	IC50 (recombinant human PAI-1 [1]): 1170 nM; IC50 (recombinant rat PAI-1): 2170 nM; inhibition at 10 µM (recombinant rat PAI-1; [4]): > 99%
CC(C)(C)c1ccc(COc2ccc(-c3ccc(OC(F)(F)F)cc3)cc2N(Cc2ccccc2)C(=O)C(=O)O)cc1 [Compound 59, N-benzyl-N-{4-[4-(tert-butyl)benzyloxy]-4′-(trifluoromethoxy)biphenyl-3-yl}oxamic acid]	–	–	–	inhibition at 25 µM (recombinant human PAI-1 [3]; [5]): 81%; inhibition at 3 µM (recombinant human PAI-1 [1]; pH 7.4, read-out: Inhibition Rate of Human PAI-1 Activity (%)): > 99%; inhibition at 3 µM (recombinant rat PAI-1; [4]): > 99%; inhibition at 10 µM (recombinant rat PAI-1; [4]): > 99%
COc1ccc(COc2ccc(-c3ccc(OC(F)(F)F)cc3)cc2CCC(=O)O)cc1 [Compound 66, 3-[4-(4-methoxybenzyloxy)-4′-(trifluoromethoxy)biphenyl-3-yl]propanoic acid]	15	35	25	–
CC(C)(C)c1ccc(COc2ccc(-c3ccc(OC(F)(F)F)cc3)cc2CCc2nnn[nH]2)cc1 [Compound 69, 5-{2-{4-[4-(tert-butyl)benzyloxy]-4′-(trifluoromethoxy)biphenyl-3-yl}ethyl}-1H-tetrazole]	–	–	–	inhibition at 10 µM (recombinant human PAI-1 [3]; [5]): 34%; inhibition at 25 µM (recombinant human PAI-1 [3]; [5]): > 99%
CC(C)(C)c1ccc(COc2ccc(-c3ccccc3OC(F)(F)F)cc2/C=C/C(=O)O)cc1 [Compound 72, (E)-3-{4-[4-(tert-butyl)benzyloxy]-2′-(trifluoromethoxy)biphenyl-3-yl}propenoic acid]	42	72	93	–
CC(C)(C)c1ccc(-c2ccc(OCc3cccc(OC(F)(F)F)c3)c(CCC(=O)O)c2)cc1 [Compound 75, 3-{4′-(tert-butyl)-4-[3-(trifluoromethoxy)benzyloxy]biphenyl-3-yl}propanoic acid]	40	74	95	–

Continued, in another order:

Inhibition Rate of Human PAI-1 Activity (%) (recombinant human PAI-1 [3]; compound 5 μM)	Inhibition Rate of Human PAI-1 Activity (%) (recombinant human PAI-1 [3]; compound 10 μM)	Inhibition Rate of Human PAI-1 Activity (%) (recombinant human PAI-1 [3]; compound 25 μM)	Structure (SMILES)	other results
38	72	93	CC(C)(C)c1ccc(COc2ccc(-c3cccc(OC(F)(F)F)c3)cc2/C=C/C(=O)O)cc1 [Compound 70, (E)-3-{4-[4-(tert-butyl)benzyloxy]-3′-(trifluoromethoxy)biphenyl-3-yl}propenoic acid]	–
49	74	95	CC(C)(C)c1ccc(COc2ccc(-c3cccc(OC(F)(F)F)c3)cc2CCC(=O)O)cc1 [Compound 71, 3-{4-[4-(tert-butyl)benzyloxy]-3′-(trifluoromethoxy)biphenyl-3-yl}propanoic acid]	–
52	80	>99	CC(C)(C)c1ccc(COc2ccc(-c3ccccc3OC(F)(F)F)cc2CCC(=O)O)cc1 [Compound 73, 3-{4-[4-(tert-butyl)benzyloxy]-2′-(trifluoromethoxy)biphenyl-3-yl}propanoic acid]	–
37	70	94	CC(C)(C)c1ccc(-c2ccc(OCc3ccccc3OC(F)(F)F)c(CCC(=O)O)c2)cc1 [Compound 74, 3-{4′-(tert-butyl)-4-[2-(trifluoromethoxy)benzyloxy]biphenyl-3-yl}propanoic acid]	–
47	71	95	CC(C)(C)c1ccc(-c2ccc(OCc3ccc(C(F)(F)F)cc3)c(CCC(=O)O)c2)cc1 [Compound 77, 3-{4′-(tert-butyl)-4-[4-(trifluoromethyl)benzyloxy]biphenyl-3-yl}propanoic acid]	–
51	80	93	CCCCc1ccc(COc2ccc(-c3ccc(C(C)(C)C)cc3)cc2CCC(=O)O)cc1 [Compound 78, 3-[4′-(tert-butyl)-4-(4-butylbenzyloxy)biphenyl-3-yl]propanoic acid]	–

From patent US8044236B2, “Carboxilic acid derivatives” (Institute of Medicinal Molecular Design, Inc., priority 2006, dated 2011)
